# Data from ChEMBL document CHEMBL6074684, “Structure-activity relationship study of novel evodiamine amino acid conjugates with potent anti-colorectal cancer efficacy” (Eur J Med Chem, 2025).
# Activity calls are given as the source filed them. The calls are words filed in the database; no cut-off is given here.
# Legend:
# [1] = test system: RKO; test: Induction of apoptosis in human RKO cells assessed as apoptosis rate at 90 nM incubated for 24 hrs by Annexin V/PI staining based flow cytometric analysis (reference value: 4.87 %); format: functional
# [2] = Chemical stability of compound in McCoy's 5A cell culture medium containing 1 % DMSO assessed as (S)-3-fluoro-14-(3-fluorophenyl)-10-hydroxy-8,13,13b,14-tetrahydroindolo[2',3':3,4]pyrido[2,1-b]quinazolin-5(7H)-one release by measuring retention time at 100 uM incubated for 24 hrs by HPLC analysis; format: physicochemical
# [3] = test system: LoVo; test: Antiproliferative activity against human LoVo cells assessed as inhibition of cell growth incubated for 72 hrs by MTT assay; format: functional, cell-based
# [4] = test system: LoVo; test: Cell cycle arrest in human LoVo cells assessed as accumulation of cells at G2 phase cells at 90 nM incubated for 24 hrs by […]PI staining based flow cytometric analysis (reference value: 14.84 %); format: functional
# [5] = test system: RKO; test: Antiproliferative activity against human RKO cells assessed as inhibition of cell growth incubated for 72 hrs by MTT assay; format: functional, cell-based
# [6] = Toxicity in male BALB/c nude mouse xenografted with human LoVo cells assessed as tolerance at 40 mg/kg, ip administered once daily for 14 days; format: organism-based; details: in vivo, 336 h, time 14 day
# [7] = test system: Mitochondrial membrane; test: Induction of mitochondrial membrane potential loss in human RKO cells assessed as decrease in TMRE positive cells at 10 to 90 nM incubated for 24 hrs by TMRE staining based flow cytometric analysis; format: cell membranes; details: dose 10-90 nM
# [8] = test system: RKO; test: Cell cycle arrest in human RKO cells assessed as accumulation of cells at G1 phase at 30 nM incubated for 24 hrs by […]PI staining based flow cytometric analysis (reference value: 35.29 %); format: functional
# [9] = Cmax in male Sprague-Dawley rat at 50 mg/kg, ip measured after 24 hrs by LC-MS/MS analysis; format: ADME, organism-based; details: in vivo
# [10] = test system: HT-29; test: Antiproliferative activity against human HT-29 cells assessed as inhibition of cell growth incubated for 72 hrs by MTT assay; format: functional, cell-based; details: HT-29, 72 h
# [11] = test system: LoVo; test: Antiproliferative activity against human LoVo cells assessed as reduction in cell viability measured after 24 hrs; format: functional, cell-based; details: dose 40-200 nmol/L
# [12] = test system: LoVo; test: Cell cycle arrest in human LoVo cells assessed as accumulation of cells at G1 phase cells at 30 nM incubated for 24 hrs by […]PI staining based flow cytometric analysis (reference value: 29.69 %); format: functional
# [13] = test system: RKO; test: Cell cycle arrest in human RKO cells assessed as accumulation of cells at S phase at 10 nM incubated for 24 hrs by […]PI staining based flow cytometric analysis (reference value: 43.36 %); format: functional
# [14] = test system: Mitochondrial membrane; test: Induction of mitochondrial membrane potential loss in human LoVo cells assessed as decrease in TMRE positive cells at 10 to 90 nM incubated for 24 hrs by TMRE staining based flow cytometric analysis; format: cell membranes; details: dose 10-90 nM
# [15] = test system: LoVo; test: Induction of morphological changes in human LoVo cells assessed as appearance of condensed morphology incubated for 24 hrs by Giemsa staining based microscopic analysis; format: functional, cell-based; details: dose 10-90 nM
# [16] = test system: RKO; test: Cell cycle arrest in human RKO cells assessed as accumulation of cells at S phase at 30 nM incubated for 24 hrs by […]PI staining based flow cytometric analysis (reference value: 43.36 %); format: functional
# [17] = Stability of compound in rat plasma assessed as half-life; format: ADME, cell-free
# [18] = test system: MGC-803; test: Antiproliferative activity against human MGC-803 cells assessed as inhibition of cell growth incubated for 72 hrs by MTT assay; format: functional, cell-based; details: MGC-803, 72 h
# [19] = test system: RKO; test: Induction of morphological changes in human RKO cells assessed as appearance of contracted nucleus incubated for 24 hrs by Giemsa staining based microscopic analysis; format: functional, cell-based; details: dose 10-90 nM
# [20] = test system: Mitochondrial membrane; test: Induction of mitochondrial membrane potential loss in human RKO cells assessed as TMRE positive cells at 90 nM incubated for 24 hrs by TMRE staining based flow cytometric analysis (reference value: 95.54 %); format: cell membranes
# [21] = test system: LoVo; test: Antitumor activity against human LoVo cells xenografted in male BALB/c nude mouse assessed as tumor growth inhibition at 40 mg/kg, ip administered once daily for 14 days relative to control; format: functional; details: 336 h, time 14 day, read-out: TGI
# [22] = test system: RKO; test: Antiproliferative activity against human RKO cells assessed as reduction in cell viability measured after 24 hrs; format: functional, cell-based; details: dose 40-200 nmol/L
# [23] = test system: RKO; test: Induction of morphological changes in human RKO cells assessed as appearance of condensed morphology incubated for 24 hrs by Giemsa staining based microscopic analysis; format: functional, cell-based; details: dose 10-90 nM
# [24] = test system: LoVo; test: Cell cycle arrest in human LoVo cells assessed as accumulation of cells at G1 phase cells at 90 nM incubated for 24 hrs by […]PI staining based flow cytometric analysis (reference value: 29.69 %); format: functional
# [25] = Half-life in male Sprague-Dawley rat at 50 mg/kg, ip measured after 24 hrs by LC-MS/MS analysis; format: ADME, organism-based; details: in vivo
# [26] = Toxicity in male BALB/c nude mouse xenografted with human HT-29 cells assessed as tolerance at 40 mg/kg, ip administered once daily for 14 days; format: organism-based; details: in vivo, 336 h, time 14 day
# [27] = test system: SGC-7901; test: Antiproliferative activity against human SGC-7901 cells assessed as inhibition of cell growth incubated for 72 hrs by MTT assay; format: functional, cell-based; details: SGC-7901, 72 h
# [28] = Chemical stability of compound in McCoy's 5A cell culture medium containing 1 % DMSO assessed as retention time at 100 uM incubated for 24 hrs by HPLC analysis; format: physicochemical
# [29] = Tmax in male Sprague-Dawley rat at 50 mg/kg, ip measured after 24 hrs by LC-MS/MS analysis; format: ADME, organism-based; details: in vivo
# [30] = test system: RKO; test: Cell cycle arrest in human RKO cells assessed as accumulation of cells at G1 phase at 90 nM incubated for 24 hrs by […]PI staining based flow cytometric analysis (reference value: 35.29 %); format: functional
# [31] = AUC (0 to t) in male Sprague-Dawley rat at 50 mg/kg, ip measured after 24 hrs by LC-MS/MS analysis; format: ADME, organism-based; details: in vivo
# [32] = test system: MCF7; test: Antiproliferative activity against human MCF7 cells assessed as inhibition of cell growth incubated for 72 hrs by MTT assay; format: functional, cell-based; details: MCF7, 72 h
# [33] = test system: RKO; test: Cell cycle arrest in human RKO cells assessed as accumulation of cells at S phase at 90 nM incubated for 24 hrs by […]PI staining based flow cytometric analysis (reference value: 43.36 %); format: functional
structure (smiles),measurement,setting,value
CC(C)(C)OC(=O)N[C@@H](CCC(N)=O)C(=O)Oc1ccc2[nH]c3c(c2c1)CCN1C(=O)c2cc(F)ccc2N(c2cccc(F)c2)[C@H]31,Activity,[1],12.25%
same,Retention_time,[2],6.24 min
same,IC50,[3],0.07 µM
same,Activity,[4],19.93%
same,IC50,[5],0.05 µM
same,Activity,[6],Non-toxic
same,Activity,[7],Active
same,Activity,[8],16.95%
same,Cmax,[9],7080 ng/mL
same,IC50,[10],0.13 µM
same,Activity,[11],Dose-dependent-effect
same,Activity,[12],10.27%
same,Activity,[13],42.5%
same,Activity,[14],Active
same,Activity,[15],Dose-dependent-effect
same,Activity,[16],25.51%
same,half-life,[17],0.6 h
same,IC50,[18],0.12 µM
same,Activity,[19],Dose-dependent-effect
same,Activity,[20],85.1%
same,inhibition in vivo at 40 mg/kg,[21],82.5%
same,Activity,[22],Dose-dependent-effect
same,Activity,[23],Dose-dependent-effect
same,Activity,[24],25.84%
same,half-life,[25],1.38 h
same,Activity,[26],Non-toxic
same,IC50,[27],0.49 µM
same,Retention_time,[28],8.63 min
same,Tmax,[29],1 h
same,Activity,[30],26.83%
same,AUC(0-t) at 24 h,[31],14600 ng·h/mL
same,IC50,[32],0.6 µM
same,Activity,[33],49.95%
